Measurements reported in publication PMC5036617 (Toxicological Sciences, 2016).
Read-outs that look alike come from different tables or passages of the source. One block for each molecule: values may come before it.

Key:
[1] = cited from earlier work
HepG2 cells [2] = assay: Cellular ATP content of HepG2 cells in glucose or galactose medium (ATP bioluminescent assay); assay type: cell-based; details: 2 h; for EC50ATPglu/EC50ATPgal: ratio ≥ 2 identifies a mitochondrial liability; for EC50: Homo sapiens, concentration reducing cellular ATP content by 50%
Experimental: Metabolic switching of cells was performed based on work previously described by ([[…] et al., 2015]). Briefly, 24 h prior to metabolic switch, HepG2 cells were collected by trypsinization and seeded on a collagen-coated flat-bottomed 96-well plate (20 000 cells/50 μl/well) and incubated (37°C, 5% CO2) overnight. […] Flutamide, 2-hydroxyflutamide and bicalutamide stock solutions were prepared in DMSO and diluted further in the appropriate medium. Compounds (50 μl) were then added to each well and cells were incubated for 2 h (37 °C, 5% CO2). All assays used ≤ 0.5% DMSO as a vehicle control. […] LDH content of the cells and supernatant was assessed using a cytotoxicity detection kit according to the manufacturer's instructions. ATP content was assessed using an ATP bioluminescent assay according to the manufacturer's instructions. Briefly, 10 μl of cell lysate or ATP standard curve solutions were added to a white-walled 96-well plate before addition of 40 μl ATP assay mix. Protein content of all wells was then assessed using a BCA assay applied to 10 μl of cell lysate and standards. LDH (490 nm), BCA (570 nm), and ATP assay luminescence were then measured using a plate reader (Varioskan, Thermo Scientific). ATP content readings were normalized to protein content. Experiments were conducted in a minimum of triplicate to ensure the reliability of single values. EC50 data were determined by nonlinear regression analysis using GraphPad Prism 5.0. Normality was assessed using a Shapiro-Wilk statistical test. Statistical significance was determined by an unpaired t-test for parametric data and a Mann-Whitney U test for non-parametric data using StatsDirect 2.7.9. P < .05 was taken as showing a significant difference.

HepG2 cells [3] = assay: Mitochondrial stress test, OCR analysis (Seahorse XFe96); assay type: cell-based; details: vs vehicle control
Experimental: HepG2 cells were collected by trypsinization and seeded on a collagen-coated XF 96-well cell culture microplate (25 000 cells/100 µl medium/well) and incubated overnight in glucose medium (37 °C, 5% CO2). All assays used ≤ 0.5% DMSO as a vehicle control. Cells were incubated for 1 h (37°C, 0% CO2) before culture medium was replaced by 175 µl of unbuffered Seahorse XF Base medium supplemented with glucose (25 mM), L-glutamine (2 mM), sodium pyruvate (1 mM), pre-warmed to 37 °C (pH 7.4). Prior to measurement of OCR, the Seahorse XFe96 instrument gently mixed the assay medium in each well for 10 min to enable the oxygen partial pressure to reach equilibrium. […] There were 9 OCR measurement cycles following compound injection and each measurement cycle consisted of a 3 min mix and 3 min measure. […] After stress test compound injections there were 3 measurement cycles before the injection of the next stress test compound. This enabled the calculation of basal respiration (OCR prior to oligomycin injection—non-mitochondrial OCR), proton leak (OCR after oligomycin injection—non-mitochondrial OCR), ATP-linked OCR (basal respiration—proton leak—non-mitochondrial OCR), maximal respiration (first injection after FCCP injection—non-mitochondrial OCR) and spare respiratory capacity (maximal respiration—basal respiration) (Figure 2).  FIG. 2 Representative control mitochondrial stress test trace. Mitochondrial stress test assays consisted of a series of compound injections into the cell culture microplate. […] Remaining injections consisted of oligomycin (ATP synthase inhibitor), FCCP (OXPHOS uncoupler), and rotenone/antimycin A (complex I and III inhibitors, respectively) with each followed by 3 measurement cycles. This series of manipulations enabled the calculation of parameters: basal, ATP-linked, maximum, and non-mitochondrial OCR, as well as proton leak. Each measurement cycle was a total of 6 min. Following completion of OCR assays, medium was removed from all wells and 20 µl of somatic cell ATP releasing agent was added to each well before shaking for 1 min and transfer of 10 µl of lysate to a 96-well plate and performance of a BCA assay according to the manufacturer’s instructions. Protein content per well was used to normalize OCR.

Structure (SMILES): Nc1ccc([N+](=O)[O-])c(C(F)(F)F)c1 [3-trifluoromethyl-4-nitroaniline]
Cmax ([1]; plasma, metabolite after single 250 mg dose of flutamide, ref Schulz et al., 1988, read-out: maximum plasma concentration (Cmax)): 1310 nM

Structure (SMILES): C[C@](O)(CS(=O)(=O)c1ccc(F)cc1)C(=O)Nc1ccc(C#N)c(C(F)(F)F)c1 [(R)-bicalutamide]
half-life ([1]; single 50 mg dose, ref Cockshott, 2004): 140 h
Cmax ([1]; single 50 mg dose, ref Cockshott, 2004, read-out: Cmax): 1700 nM

EC50ATPglu/EC50ATPgal (HepG2 cells [2]): 1.44 (0.22)
EC50ATPglu/EC50ATPgal (HepG2 cells [2]; listed as bicalutamide): ≤ 2
EC50 (HepG2 cells [2]; galactose medium, read-out: EC50ATP (μM) Galactose): 103 µM
EC50 (HepG2 cells [2]; glucose medium, read-out: EC50ATP (μM) Glucose): 148 µM
Structure (SMILES): CC(O)(CS(=O)(=O)c1ccc(F)cc1)C(=O)Nc1ccc(C#N)c(C(F)(F)F)c1 (stereo not shown) [Bicalutamide]
decrease in ATP content in galactose medium compared with glucose medium (HepG2 cells [2]; up to 300 µM): this was not the case for bicalutamide
basal respiration (HepG2 cells [3]; glucose medium, 7.8–500 µM): only caused a significant decrease in maximal respiration
maximal respiration (HepG2 cells [3]; glucose medium, 7.8–500 µM): significant decrease
ATP-linked OCR as a percentage of maximal respiration (HepG2 cells [3]; up to 500 µM): not observed
proton leak as a percentage of maximal respiration (HepG2 cells [3]; up to 500 µM): not observed
spare respiratory capacity as a percentage of maximal respiration (HepG2 cells [3]; up to 500 µM): not observed
